Values quoted from earlier work in patent US20140255430A1, “METHODS AND REAGENTS FOR DETECTION AND TREATMENT OF ESOPHAGEAL METAPLASIA” (NATIONAL UNIVERSITY OF SINGAPORE, priority 2010, published 2014).

Molecular target: T1, PPARgamma (Homo sapiens, UniProt P37231)
T1 sequence (P37231 1-505): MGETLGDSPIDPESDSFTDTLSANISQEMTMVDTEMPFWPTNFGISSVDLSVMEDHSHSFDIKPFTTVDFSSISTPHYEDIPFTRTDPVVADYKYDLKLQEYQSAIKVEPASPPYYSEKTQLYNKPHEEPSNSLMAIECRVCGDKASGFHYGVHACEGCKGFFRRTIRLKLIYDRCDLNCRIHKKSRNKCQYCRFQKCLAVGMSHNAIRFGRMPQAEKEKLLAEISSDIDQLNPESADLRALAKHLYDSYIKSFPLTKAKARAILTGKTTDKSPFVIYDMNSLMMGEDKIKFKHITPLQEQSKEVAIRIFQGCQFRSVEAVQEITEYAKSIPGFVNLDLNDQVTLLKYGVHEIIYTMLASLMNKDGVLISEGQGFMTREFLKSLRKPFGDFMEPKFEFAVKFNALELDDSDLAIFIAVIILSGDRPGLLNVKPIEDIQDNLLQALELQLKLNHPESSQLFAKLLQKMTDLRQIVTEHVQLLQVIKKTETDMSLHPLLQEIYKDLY
Conditions: irreversible inhibitor

O=C(Nc1ccccc1)c1cc([N+](=O)[O-])ccc1Cl [GW-9662, 2-Chloro-5-nitro-N-phenyl-benzamide]
IC50 for suppression of PPARgamma: nanomolar
